Assay results published in patent publication US7084117B2, “Pharmaceutical compositions which inhibit vascular proliferation and method of use thereof” (Societe de Conseils de Recherches et d'Applications …, priority 2001, dated 2006).

How the values were obtained:
[1] = tested on: immortalized human microvascular endothelial HMEC-1 cells; assay: Cytotoxicity assay (cell proliferation); assay type: cell-based; details: 10^−6 M (+VEGF 10 ng/mL), 72 hours
Experimental: The immortalized human microvascular endothelial cell line HMEC-1, characterized by Ades, et al., (Journal of Investigative Dermatology 1992, 99: 683–690), was maintained in Medium 199, supplemented with 10% heat-inactivated fetal bovine serum (FBS), penicillin (50 IU/mL) and hydrocortisone (100 μg/mL). Cells were routinely grown in 75 cm2 gelatin-coated tissue culture flasks and kept in a humidified atmosphere of 5% CO2 at 37° C. Cells were harvested with a solution of 0.25% trypsin-0.03% EDTA when they were in long phase of growth and maintained at the above-described culture conditions for all experiments.
In vitro chemosensitivity testing was performed on single-cell suspensions of HEMC-1 cells (5×10^3 cells/well) plated in 96-well gelatin-coated sterile plastic plates and allowed to attach overnight. […] The treatments were scheduled so that each peptide was represented by at least nine wells. At the end of the experiment, cells were rinsed with phosphate buffered saline (PBS), harvested with trypsin/EDTA, and counted with an hemocytometer. Results are expressed as the percentage of cell proliferation versus controls and are the mean of three separate experiments±S.E repeated thrice.

[2] = tested on: human placental vessel explants (capillaries sprouts); assay: In vitro cultures of human placental vessels, sprouting index by image analysis; assay type: cell-based; details: 10^−6 M, treated every two days for 28 days
Experimental: The experimental procedure described by Brown et al., (Laboratory Investigation 1996, 75: 539–555) was followed and modified in the present study. Immediately after the spontaneous delivery, the placenta was collected in sterile conditions and superficial blood vessels, approximately […] in diameter and from 1 to 5 cm in length, were excised. Vessel explants were placed in phosphate buffered saline (PBS) solution containing […] of amphotericin B and 50 μg/mL of gentamycin and were cut into approximately 1-mm fragments. […]
The image analysis procedures described by Bocci et al., (Cancer Chemotherapy Pharmacology 1999, 43: 205–212), were adopted for the present study. […] The true color image analysis software package KS 300 v.1.2 (Kontron Elektronik GmbH, Eching, Germany) was run for interactive manipulation, quantification of the images and data collection. […] In the fibrin culture of placental vessel explants the mean gray level of the sprouting area was measured and the sprouting index (SI) was defined as: Sprouting index=((sprouting area/mean gray level of sprouting area)/perimeter of explant)×100. Results are expressed as the percentage of sprouting index+/−S.E. versus controls.

**Q.** Which results are given for `Cc1cc(C)c(/C=C2\C(=O)Nc3ccccc32)[nH]1` [SU5416, 3-((2,4-dimethylpyrrol-5-yl)methylidenyl)-2-indolinone]?
**A.** cell growth block [1]: 56.2%; sprouting index (SI) as compared to untreated controls [2]: 32.92±9.7%
